Results published in US20210130401A1, “PEPTIDOMIMETIC INHIBITORS OF THE WDR5-MLL INTERACTION” (THE REGENTS OF THE UNIVERSITY OF MICHIGAN, priority 2017, published 2021).
Like-named read-outs stand apart in the source and are kept apart here. Starred links: 1 amine or outer side, 2 acyl side, 3 side chain; linkers in the order of their positions; H or OH if unused. Positions of bridges follow the written chain, without caps; N, C: chain ends. Non-standard residues stand in square brackets, D forms with d. Residues, ends and D or L forms follow the SMILES beside them. ξ: configuration not given here. *: point of attachment. dαMeLys(Me) = CN(CCCC[C@@](C)(N[*:1])C(=O)[*:2])[*:3]; Orn(2-imidazolinyl) = N[C@@H](CCCNC1=NCCN1)C(=O)O; dαMeDab = C[C@](CCN[*:3])(N[*:1])C(=O)[*:2]; Arg(Me2s) = CN=C(NC)NCCC[C@H](N)C(=O)O; dPhe(2-F) = N[C@H](Cc1ccccc1F)C(=O)O; dCha = N[C@H](CC1CCCCC1)C(=O)O; dPhg = N[C@@H](C(=O)O)c1ccccc1; ξhPhe = NC(CCc1ccccc1)C(=O)O; Imidazol2yl = c1c[nH]c(*)n1; Pyridin(2-yl) = c1ccc(*)nc1; dOrn = NCCC[C@@H](N)C(=O)O; Isobutyryl = CC(C)C(=O)*; Orn = NCCC[C@H](N)C(=O)O; dDap = NC[C@@H](N)C(=O)O; Ac5c = NC1(C(=O)O)CCCC1; Dab = NCC[C@H](N)C(=O)O; Abu = CC[C@H](N)C(=O)O; ξOrn = NCCCC(N)C(=O)O; ξDab = NCCC(N)C(=O)O; ClAc = O=C(CCl)*

Legend:
[1] = target: T1, WDR5 (Homo sapiens, UniProt P61964); assay: fluorescence polarization (FP) based competitive binding assay to WDR5 protein
T1 construct: N-terminal His-tagged WDR5 protein (residues 24-334), named WDR5Δ23; made in house; host or cells: E. coli Rosetta 2 (DE3)
Method: The plates were incubated at room temperature on a shaker for 3h, and then the mP values were measured using the Tecan Infinite M-1000 plate reader (Tecan U.S., Research Triangle Park, N.C.).

[2] = tested on: MOLM-13 leukemia cells carrying MLL-AF9 fusion; assay: cell viability assay (WST-8), MOLM-13; format: cell-based; settings: Homo sapiens, MOLM-13, 96 h
[3] = calculated from IC50 by published equation, read-out: Binding Affinity to WDR5 Ki ± SD
[4] = read-out: Binding Affinity to WDR5 IC50 ± SD
[5] = Table 2A, 4 days treatment, read-out: MOLM-13 IC50

Q: CC[C@@H]1NC(=O)[C@H](CCCNC(=N)N)NC(=O)[C@](C)(NC(=O)C(C)C)CCNC(=O)[C@@H](c2cccc(F)c2)NC1=O [Cpd. No. 80, N-((3R,6S,9S,12R)-6-ethyl-3-(3-fluorophenyl)-9-(3-guanidinopropyl)-12-methyl-2,5,8,11-tetraoxo-1,4,7,10-tetraazacyclotetradecan-12-yl)isobutyramide] was tested. Which IC50 [1] did it give?
A: 2.87 nM

Q: And the Ki [1]?
A: < 1 nM

Q: What about the IC50 ([2]; read-out: MOLM-13 IC50 (μM)) of the same molecule?
A: 0.42 µM

Q: How did the Ki [1, 3] turn out when CC[C@@H]1NC(=O)[C@H](CCCNC(=N)N)NC(=O)[C@H](NC(=O)C(C)C)CNC(=O)[C@@H](c2ccccc2)NC1=O [Cpd. No. 71, N-((3R,6S,9S,12R)-6-ethyl-9-(3-guanidinopropyl)-2,5,8,11-tetraoxo-3-phenyl-1,4,7,10-tetraazacyclotridecan-12-yl)isobutyramide] (Isobutyryl-[dDap]R[Abu][dPhg]; lactam 1-C) was run?
A: 242 ± 33 nM

Q: And the IC50 [1, 4]?
A: 1190 ± 160 nM

Q: With CC[C@@H]1NC(=O)[C@H](CCCNC(=N)N)NC(=O)[C@H](NC(=O)C(C)C)CCCCNC(=O)[C@@H](c2ccccc2)NC1=O [Cpd. No. 73, N-((3R,6S,9S,12R)-6-ethyl-9-(3-guanidinopropyl)-2,5,8,11-tetraoxo-3-phenyl-1,4,7,10-tetraazacyclohexadecan-12-yl)isobutyramide] (Isobutyryl-[dK]R[Abu][dPhg]; lactam 1-C) as the molecule, how does the Ki [1, 3] read?
A: 60.3 ± 11.9 nM

Q: What about the IC50 [1, 4] of the same molecule?
A: 298 ± 58 nM

Q: Which results are given for CC[C@@H]1NC(=O)[C@H](CCCNC(=N)N)NC(=O)[C@H](NC(=O)C(C)C)CCCNC(=O)[C@@H](c2ccccc2)NC1=O [Cpd. No. 72, N-((3R,6S,9S,12R)-6-ethyl-9-(3-guanidinopropyl)-2,5,8,11-tetraoxo-3-phenyl-1,4,7,10-tetraazacyclopentadecan-12-yl)isobutyramide] (Isobutyryl-[dOrn]R[Abu][dPhg]; lactam 1-C)?
A: Ki [1, 3]: 32.9 ± 5.3 nM; IC50 [1, 4]: 164 ± 26 nM

Q: What does the source list for CC[C@@H]1NC(=O)[C@H](CCCNC(=N)N)NC(=O)[C@](C)(NC(=O)C(C)C)CCCCN(C)C(=O)[C@@H](c2ccc(Cl)cc2)NC1=O [Cpd. No. 67, N-((3R,6S,9S,12R)-3-(4-chlorophenyl)-6-ethyl-9-(3-guanidinopropyl)-1,12-dimethyl-2,5,8,11-tetraoxo-1,4,7,10-tetraazacyclohexadecan-12-yl)isobutyramide]?
A: IC50 [1]: 1.5 ± 0.9 nM; Ki [1]: < 1 nM

Q: Which results are given for CC[C@@H]1NC(=O)[C@H](CCCNC(=N)N)NC(=O)[C@](C)(NC(=O)C(C)C)CCCCN(C)C(=O)[C@@H](c2ccccc2)NC1=O [Cpd. No. 65, N-((3R,6S,9S,12R)-6-ethyl-9-(3-guanidinopropyl)-1,12-dimethyl-2,5,8,11-tetraoxo-3-phenyl-1,4,7,10-tetraazacyclohexadecan-12-yl)isobutyramide] (Isobutyryl-[dαMeLys(Me)]R[Abu][dPhg]; lactam 1-C)?
A: IC50 [1]: 1.6 ± 0.3 nM; Ki [1]: < 1 nM

Q: CC[C@@H]1NC(=O)[C@H](CCNc2ncc[nH]2)NC(=O)[C@](C)(NC(=O)C(C)C)CCNC(=O)[C@@H](c2ccccc2)NC1=O [Cpd. No. 19, N-((3R,6S,9S,12R)-9-(2-((1H-imidazol-2-yl)amino)ethyl)-6-ethyl-12-methyl-2,5,8,11-tetraoxo-3-phenyl-1,4,7,10-tetraazacyclotetradecan-12-yl)isobutyramide] (Isobutyryl-[dαMeDab][Dab](Imidazol2yl)[Abu][dPhg]; lactam 1-C) was tested. Which IC50 ([2]; read-out: MOLM-13 IC50 (μM)) did it give?
A: > 10 µM

Q: For CC[C@@H]1NC(=O)[C@H](CCCNC(=N)N)NC(=O)[C@](C)(NC(=O)C(C)C)CCNC(=O)[C@@H](c2ccccc2Cl)NC1=O [Cpd. No. 83, N-((3R,6S,9S,12R)-3-(2-chlorophenyl)-6-ethyl-9-(3-guanidinopropyl)-12-methyl-2,5,8,11-tetraoxo-1,4,7,10-tetraazacyclotetradecan-12-yl)isobutyramide], which IC50 ([2]; read-out: MOLM-13 IC50 (μM)) is on record?
A: 2.6 µM

Q: For CC[C@@H]1NC(=O)C(CCCNC(=O)CCl)NC(=O)[C@](C)(NC(=O)C(C)C)CCNC(=O)[C@@H](c2ccccc2)NC1=O (stereo partly drawn) [Cpd. No. 25, N-((3R,6S,12R)-9-(3-(2-chloroacetamido)propyl)-6-ethyl-12-methyl-2,5,8,11-tetraoxo-3-phenyl-1,4,7,10-tetraazacyclotetradecan-12-yl)isobutyramide] (Isobutyryl-[dαMeDab][ξOrn](ClAc)[Abu][dPhg]; lactam 1-C), which IC50 [2, 5] is on record?
A: > 10 µM

Q: How did the IC50 ([2]; read-out: MOLM-13 IC50 (μM)) turn out when CC[C@@H]1NC(=O)[C@H](CCCNc2ncc[nH]2)NC(=O)[C@](C)(NC(=O)C(C)C)CCNC(=O)[C@@H](c2ccccc2)NC1=O [Cpd. No. 20, N-((3R,6S,9S,12R)-9-(3-((1H-imidazol-2-yl)amino)propyl)-6-ethyl-12-methyl-2,5,8,11-tetraoxo-3-phenyl-1,4,7,10-tetraazacyclotetradecan-12-yl)isobutyramide] (Isobutyryl-[dαMeDab][Orn](Imidazol2yl)[Abu][dPhg]; lactam 1-C) was run?
A: > 10 µM

Q: How did the IC50 ([2]; read-out: MOLM-13 IC50 (μM)) turn out when CC[C@@H]1NC(=O)[C@H](CCCNC(=N)NN)NC(=O)[C@](C)(NC(=O)C(C)C)CCNC(=O)[C@@H](CC2CCCCC2)NC1=O [Cpd. No. 34, N-((3R,6S,9S,12R)-3-(cyclohexylmethyl)-6-ethyl-9-(3-(hydrazinecarboximidamido)propyl)-12-methyl-2,5,8,11-tetraoxo-1,4,7,10-tetraazacyclotetradecan-12-yl)isobutyramide] was run?
A: > 10 µM

Q: With CC[C@@H]1NC(=O)[C@H](CCCNC(=N)N)NC(=O)[C@](C)(NC(=O)C(C)C)CCNC(=O)[C@@H](Cc2ccccc2F)NC1=O [Cpd. No. 55, N-((3R,6S,9S,12R)-6-ethyl-3-(2-fluorobenzyl)-9-(3-guanidinopropyl)-12-methyl-2,5,8,11-tetraoxo-1,4,7,10-tetraazacyclotetradecan-12-yl)isobutyramide] (Isobutyryl-[dαMeDab]R[Abu][dPhe(2-F)]; lactam 1-C) as the molecule, how does the IC50 ([2]; read-out: MOLM-13 IC50 (μM)) read?
A: 3.59 µM

Q: How did the IC50 ([2]; read-out: MOLM-13 IC50 (μM)) turn out when CC[C@@H]1NC(=O)[C@H](CCCN/C(=N/C)NC)NC(=O)[C@](C)(NC(=O)C(C)C)CCNC(=O)[C@@H](CC2CCCCC2)NC1=O [Cpd. No. 31, N-((3R,6S,9S,12R)-3-(cyclohexylmethyl)-9-(3-((E)-2,3-dimethylguanidino)propyl)-6-ethyl-12-methyl-2,5,8,11-tetraoxo-1,4,7,10-tetraazacyclotetradecan-12-yl)isobutyramide] (Isobutyryl-[dαMeDab][Arg(Me2s)][Abu][dCha]; lactam 1-C) was run?
A: > 10 µM

Q: For CC[C@@H]1NC(=O)[C@H](CNC2CCN(C)CC2)NC(=O)[C@](C)(NC(=O)C(C)C)CCNC(=O)[C@@H](c2ccccc2)NC1=O [Cpd. No. 7, N-((3R,6S,9S,12R)-6-ethyl-12-methyl-9-(((1-methylpiperidin-4-yl)amino)methyl)-2,5,8,11-tetraoxo-3-phenyl-1,4,7,10-tetraazacyclotetradecan-12-yl)isobutyramide], which IC50 ([2]; read-out: MOLM-13 IC50 (μM)) is on record?
A: > 10 µM

Q: Which IC50 [2, 5] does the source give for CC[C@@H]1NC(=O)[C@H](CCCNC(=N)N)NC(=O)[C@](C)(NC(=O)C(C)C)CCNC(=O)[C@@H](CC(C)C)NC1=O [Cpd. No. 49, N-((3R,6S,9S,12R)-6-ethyl-9-(3-guanidinopropyl)-3-isobutyl-12-methyl-2,5,8,11-tetraoxo-1,4,7,10-tetraazacyclotetradecan-12-yl)isobutyramide] (Isobutyryl-[dαMeDab]R[Abu][dL]; lactam 1-C) here?
A: 1.88 µM

Q: For CC(C)C(=O)N[C@]1(C)CCNC(=O)[C@@H](c2ccccc2)NC(=O)C2(CCCC2)NC(=O)[C@H](CCCNC(=N)N)NC1=O [Cpd. No. 86, N-((8S,11R,16R)-8-(3-guanidinopropyl)-11-methyl-7,10,15,18-tetraoxo-16-phenyl-6,9,14,17-tetraazaspiro[4.13]octadecan-11-yl)isobutyramide] (Isobutyryl-[dαMeDab]R[Ac5c][dPhg]; lactam 1-C), which IC50 ([2]; read-out: MOLM-13 IC50 (μM)) is on record?
A: > 10 µM

Q: CC[C@@H]1NC(=O)[C@H](CCCNC2=NCC(C)CN2)NC(=O)[C@](C)(NC(=O)C(C)C)CCNC(=O)[C@@H](CC2CCCCC2)NC1=O (stereo partly drawn) [Cpd. No. 97, N-((3R,6S,9S,12R)-3-(cyclohexylmethyl)-6-ethyl-12-methyl-9-(3-((5-methyl-1,4,5,6-tetrahydropyrimidin-2-yl)amino)propyl)-2,5,8,11-tetraoxo-1,4,7,10-tetraazacyclotetradecan-12-yl)isobutyramide] was tested. Which IC50 ([2]; read-out: MOLM-13 IC50 (μM)) did it give?
A: > 10 µM

Q: CC[C@@H]1NC(=O)C(CCc2ccccc2)NC(=O)[C@](C)(NC(=O)C(C)C)CCNC(=O)[C@@H](c2ccccc2)NC1=O (stereo partly drawn) [Cpd. No. 13, N-((3R,6S,12R)-6-ethyl-12-methyl-2,5,8,11-tetraoxo-9-phenethyl-3-phenyl-1,4,7,10-tetraazacyclotetradecan-12-yl)isobutyramide] (Isobutyryl-[dαMeDab][ξhPhe][Abu][dPhg]; lactam 1-C) was tested. Which IC50 ([2]; read-out: MOLM-13 IC50 (μM)) did it give?
A: > 10 µM

Q: CC[C@@H]1NC(=O)[C@H](CCNC2CCN(C)CC2)NC(=O)[C@](C)(NC(=O)C(C)C)CCNC(=O)[C@@H](c2ccccc2)NC1=O [Cpd. No. 8, N-((3R,6S,9S,12R)-6-ethyl-12-methyl-9-(2-((1-methylpiperidin-4-yl)amino)ethyl)-2,5,8,11-tetraoxo-3-phenyl-1,4,7,10-tetraazacyclotetradecan-12-yl)isobutyramide] was tested. Which IC50 ([2]; read-out: MOLM-13 IC50 (μM)) did it give?
A: > 10 µM

Q: CC[C@@H]1NC(=O)C(CCNc2ccccn2)NC(=O)[C@](C)(NC(=O)C(C)C)CCNC(=O)[C@@H](c2ccccc2)NC1=O (stereo partly drawn) [Cpd. No. 11, N-((3R,6S,12R)-6-ethyl-12-methyl-2,5,8,11-tetraoxo-3-phenyl-9-(2-(pyridin-2-ylamino)ethyl)-1,4,7,10-tetraazacyclotetradecan-12-yl)isobutyramide] (Isobutyryl-[dαMeDab][ξDab](Pyridin(2-yl))[Abu][dPhg]; lactam 1-C) was tested. Which IC50 ([2]; read-out: MOLM-13 IC50 (μM)) did it give?
A: > 10 µM

Q: With CC[C@@H]1NC(=O)[C@H](CCCNC2=NCCN2)NC(=O)[C@](C)(NC(=O)C(C)C)CCNC(=O)[C@@H](CC2CCCCC2)NC1=O [Cpd. No. 30, N-((3R,6S,9S,12R)-3-(cyclohexylmethyl)-9-(3-((4,5-dihydro-1H-imidazol-2-yl)amino)propyl)-6-ethyl-12-methyl-2,5,8,11-tetraoxo-1,4,7,10-tetraazacyclotetradecan-12-yl)isobutyramide] (Isobutyryl-[dαMeDab][Orn(2-imidazolinyl)][Abu][dCha]; lactam 1-C) as the molecule, how does the IC50 ([2]; read-out: MOLM-13 IC50 (μM)) read?
A: 0.67 µM
